Measured values as given in US8063065B2, “Azaindazole compounds as CCR1 receptor antagonists” (Boehringer Ingelheim International GmbH, priority 2008, dated 2011).
pIC50: −log10 of the molar value.

Target: T1, CCR1 (Homo sapiens, UniProt P32246)
T1 sequence (P32246 1-355): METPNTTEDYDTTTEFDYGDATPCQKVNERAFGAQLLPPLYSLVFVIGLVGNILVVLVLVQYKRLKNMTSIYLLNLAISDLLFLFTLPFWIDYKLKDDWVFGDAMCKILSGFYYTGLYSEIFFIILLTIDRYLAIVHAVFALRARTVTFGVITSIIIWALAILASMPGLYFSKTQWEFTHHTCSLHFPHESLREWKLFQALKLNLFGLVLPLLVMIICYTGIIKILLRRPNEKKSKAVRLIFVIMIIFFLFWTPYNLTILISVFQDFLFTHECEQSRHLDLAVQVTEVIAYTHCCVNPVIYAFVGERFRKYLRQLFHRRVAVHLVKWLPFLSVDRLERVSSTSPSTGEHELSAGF
Experiment: Method A: calcium flux in CCR1 transfected cells (Fluo-4 NW, FLIPR TETRA), block of the CCR1/MIP-1α interaction
Assay type: cell-based
Conditions: Method A: Fluo-4 NW, MIP-1 alpha at EC80
Procedure: Compounds are assessed for the ability to block the interaction of CCR1 and MIP-1α in a functional cellular assay measuring calcium flux in CCR1 transfected cells.
Method A: Non-adherent cells purchased from Chemicon Corporation (HTS005C), stably expressing recombinant CCR1 and G-alpha-16 are grown in RPMI 1640 medium (Mediatech 10-080-CM) supplemented with 10% heat-inactivated FBS, 0.4 mg/mL Geneticin and penicillin/streptomycin. On the day of the assay, the cells are transferred to a beaker and dye-loaded in bulk using a Fluo-4 NW Calcium Assay Kit with probenecid (Invitrogen F36205) at 0.8E6 cells/mL for 1 hour at room temperature. After 1 hour, they are seeded in a 384-well tissue culture-treated plate at a density of 20,000 cells/well. Appropriately diluted test compound is added to the well to achieve a top concentration of 3,000 nM (diluted 4-fold with 10 doses total). The final concentration of DMSO is 1%. The buffer is HBSS (Invitrogen 14025) with 20 mM HEPES at pH 7.4. The cells are allowed to incubate 1 hour in the dark at room temperature. The plates are transferred to the FLIPR TETRA where MIP-1 alpha in 1% BSA is added at the EC80 final concentration. Wells+/−MIP-1 alpha containing diluted DMSO instead of compound serve as the controls. Intracellular calcium flux is recorded on the FLIPR TETRA, using excitation at 470/495 nm and emission at 515/575 nm. Data are analyzed using Activity Base software.

Row | SMILES | pIC50
1 | C[C@H](NC(=O)c1cncc2c1cnn2-c1ccc(F)cc1)c1cncc(S(C)(=O)=O)c1 [1-(4-Fluorophenyl)-1H-pyrazolo[3,4-c]pyridine-4-carboxylic acid [(S)-1-(5-methanesulfonyl-pyridin-3-yl)-ethyl]-amide] | 8.52
2 | COc1cc(S(C)(=O)=O)ccc1CNC(=O)c1cncc2c1cnn2-c1ccc(F)cc1 [1-(4-Fluorophenyl)-1H-pyrazolo[3,4-c]pyridine-4-carboxylic acid 4-methanesulfonyl-2-methoxy-benzylamide] | 8.00
3 | C[C@H](NC(=O)c1cncc2c1cnn2-c1ccc(F)cc1)c1cccc(Br)n1 [1-(4-Fluorophenyl)-1H-pyrazolo[3,4-c]pyridine-4-carboxylic acid [(S)-1-(6-bromopyridin-2-yl)-ethyl]-amide] | 8.30
4 | NC1CCN(S(=O)(=O)c2ccc(CNC(=O)c3cncc4c3cnn4-c3ccc(F)cc3)cc2)CC1 [1-(4-Fluorophenyl)-1H-pyrazolo[3,4-c]pyridine-4-carboxylic acid 4-(4-amino-piperidine-1-sulfonyl)-benzylamide] | 9.52
5 | CCC[C@H](NC(=O)c1cncc2c1cnn2-c1ccc(F)cc1)c1cncc(S(=O)(=O)CCC(=O)OC)c1 [3-[5-((S)-1-{[1-(4-Fluorophenyl)-1H-pyrazolo[3,4-c]pyridine-4-carbonyl]-amino}-butyl)-pyridine-3-sulfonyl]-propionic acid methyl ester] | 8.70
6 | NC(=O)CNS(=O)(=O)c1ccc(CNC(=O)c2cncc3c2cnn3-c2ccc(F)cc2)cc1 [1-(4-Fluorophenyl)-1H-pyrazolo[3,4-c]pyridine-4-carboxylic acid 4-(carbamoylmethyl-sulfamoyl)-benzylamide] | 7.66
7 | CCCC(NC(=O)c1cncc2c1cnn2-c1ccc(F)cc1)c1ccc(S(C)(=O)=O)nc1 (stereo not drawn) [1-(4-Fluorophenyl)-1H-pyrazolo[3,4-c]pyridine-4-carboxylic acid [1-(6-methanesulfonyl-pyridin-3-yl)-butyl]-amide] | 9.10
8 | CNS(=O)(=O)c1ccc(CNC(=O)c2cncc3c2cnn3-c2ccc(F)cc2)c(Cl)c1 [1-(4-Fluorophenyl)-1H-pyrazolo[3,4-c]pyridine-4-carboxylic acid 2-chloro-4-methylsulfamoyl-benzylamide] | 9.70
9 | CCC[C@H](NC(=O)c1cncc2c1cnn2-c1ccc(F)cc1)c1cncc(S(=O)(=O)CCC(=O)O)c1 [3-[5-((S)-1-{[1-(4-Fluorophenyl)-1H-pyrazolo[3,4-c]pyridine-4-carbonyl]-amino}-butyl)-pyridine-3-sulfonyl]-propionic acid] | 7.77
10 | CC(NC(=O)c1cncc2c1cnn2-c1ccc(F)cc1)c1ccc(S(C)(=O)=O)nc1 (stereo not drawn) [1-(4-Fluorophenyl)-1H-pyrazolo[3,4-c]pyridine-4-carboxylic acid [1-(6-methanesulfonyl-pyridin-3-yl)-ethyl]-amide] | 8.05
11 | O=C(NCc1ccc(CS(=O)(=O)NC2CCCCC2)cc1)c1cncc2c1cnn2-c1ccc(F)cc1 [1-(4-Fluorophenyl)-1H-pyrazolo[3,4-c]pyridine-4-carboxylic acid 4-cyclohexylsulfamoylmethyl-benzylamide] | 7.96
12 | O=C(NCc1cncc(Br)c1)c1cncc2c1cnn2-c1ccc(F)cc1 [1-(4-Fluorophenyl)-1H-pyrazolo[3,4-c]pyridine-4-carboxylic acid (5-bromopyridin-3-ylmethyl)-amide] | 7.89
13 | C[C@H](NC(=O)c1cncc2c1cnn2-c1ccc(F)cc1)c1cccc(S(C)(=O)=O)n1 [1-(4-Fluorophenyl)-1H-pyrazolo[3,4-c]pyridine-4-carboxylic acid [(S)-1-(6-methanesulfonyl-pyridin-2-yl)-ethyl]-amide] | 8.22
14 | C[C@H](NC(=O)c1cncc2c1cnn2-c1ccc(Cl)cc1)c1cncc(S(C)(=O)=O)c1 [1-(4-Chlorophenyl)-1H-pyrazolo[3,4-c]pyridine-4-carboxylic acid [(S)-1-(5-methanesulfonyl-pyridin-3-yl)-ethyl]-amide] | 8.40
15 | CCCC(NC(=O)c1cncc2c1cnn2-c1ccc(F)cc1)c1ccnc(S(=O)(=O)CC)c1 (stereo not drawn) [1-(4-Fluorophenyl)-1H-pyrazolo[3,4-c]pyridine-4-carboxylic acid [1-(2-ethanesulfonyl-pyridin-4-yl)-butyl]-amide] | 9.10
16 | COC1CCN(S(=O)(=O)c2ccc(CNC(=O)c3cncc4c3cnn4-c3ccc(F)cc3)cc2)CC1 [1-(4-Fluorophenyl)-1H-pyrazolo[3,4-c]pyridine-4-carboxylic acid 4-(4-methoxy-piperidine-1-sulfonyl)-benzylamide] | 9.15
17 | CN(C)S(=O)(=O)N(C)c1ccc(CNC(=O)c2cncc3c2cnn3-c2ccc(F)cc2)cn1 [1-(4-Fluorophenyl)-1H-pyrazolo[3,4-c]pyridine-4-carboxylic acid [6-(dimethylamino-sulfonylmethylamino)-pyridin-3-ylmethyl]-amide] | 9.00
18 | O=C(NCc1ccc(S(=O)(=O)N2CCOCC2)cc1)c1cncc2c1cnn2-c1ccc(F)cc1 [1-(4-Fluorophenyl)-1H-pyrazolo[3,4-c]pyridine-4-carboxylic acid 4-(morpholine-4-sulfonyl)-benzylamide] | 8.70
19 | CCCC(NC(=O)c1cncc2c1cnn2-c1ccc(F)cc1)c1ccnc(Br)c1 (stereo not drawn) [1-(4-Fluorophenyl)-1H-pyrazolo[3,4-c]pyridine-4-carboxylic acid [1-(2-bromopyridin-4-yl)-butyl]-amide] | 9.40
20 | CCC[C@H](NC(=O)c1cncc2c1cnn2-c1ccc(F)cc1)c1cncc(Br)c1 [1-(4-Fluorophenyl)-1H-pyrazolo[3,4-c]pyridine-4-carboxylic acid [(S)-1-(5-bromopyridin-3-yl)-butyl]-amide] | 9.70
21 | O=C(NCc1ccc(S(=O)(=O)N2CCOCC2)nc1)c1cncc2c1cnn2-c1ccc(Cl)cc1 [1-(4-Chlorophenyl)-1H-pyrazolo[3,4-c]pyridine-4-carboxylic acid [6-(morpholine-4-sulfonyl)-pyridin-3-ylmethyl]-amide] | 8.52
22 | CCCC(NC(=O)c1cncc2c1cnn2-c1ccc(Cl)cc1)c1ccnc(S(C)(=O)=O)c1 (stereo not drawn) [1-(4-Chlorophenyl)-1H-pyrazolo[3,4-c]pyridine-4-carboxylic acid [1-(2-methanesulfonyl-pyridin-4-yl)-butyl]-amide] | 9.40
23 | CN1CCN(S(=O)(=O)c2ccc(CNC(=O)c3cncc4c3cnn4-c3ccc(F)cc3)cc2)CC1 [1-(4-Fluorophenyl)-1H-pyrazolo[3,4-c]pyridine-4-carboxylic acid 4-(4-methyl-piperazine-1-sulfonyl)-benzylamide] | 9.00
24 | COCCNS(=O)(=O)c1ccc(CNC(=O)c2cncc3c2cnn3-c2ccc(F)cc2)cn1 [1-(4-Fluorophenyl)-1H-pyrazolo[3,4-c]pyridine-4-carboxylic acid [6-(2-methoxy-ethylsulfamoyl)-pyridin-3-ylmethyl]-amide] | 8.05
25 | CCC[C@H](NC(=O)c1cncc2c1cnn2-c1ccc(F)cc1)c1cccnc1 [1-(4-Fluorophenyl)-1H-pyrazolo[3,4-c]pyridine-4-carboxylic acid ((S)-1-pyridin-3-yl-butyl)-amide] | 8.30
26 | CN1CCC(N(C)S(=O)(=O)c2ccc(CNC(=O)c3cncc4c3cnn4-c3ccc(F)cc3)cc2)CC1 [1-(4-Fluorophenyl)-1H-pyrazolo[3,4-c]pyridine-4-carboxylic acid 4-[methyl-(1-methyl-piperidin-4-yl)-sulfamoyl]-benzylamide] | 8.30
27 | O=C(NCc1cc(C(F)(F)F)cc(C(F)(F)F)c1)c1cncc2c1cnn2-c1ccc(F)cc1 [1-(4-Fluorophenyl)-1H-pyrazolo[3,4-c]pyridine-4-carboxylic acid 3,5-bis-trifluoromethyl-benzylamide] | 8.52
28 | CN(C)CCN(c1ccc(CNC(=O)c2cncc3c2cnn3-c2ccc(F)cc2)cn1)S(C)(=O)=O [1-(4-Fluorophenyl)-1H-pyrazolo[3,4-c]pyridine-4-carboxylic acid {6-[(2-dimethylamino-ethyl)-methanesulfonyl-amino]-pyridin-3-ylmethyl}-amide] | 7.66
29 | COCCN(c1ccc(CNC(=O)c2cncc3c2cnn3-c2ccc(Cl)cc2)cn1)S(C)(=O)=O [1-(4-Chlorophenyl)-1H-pyrazolo[3,4-c]pyridine-4-carboxylic acid {6-[methanesulfonyl-(2-methoxy-ethyl)-amino]-pyridin-3-ylmethyl}-amide] | 8.30
30 | CCS(=O)(=O)c1ccc(CNC(=O)c2cncc3c2cnn3-c2ccc(F)cc2)cn1 [1-(4-Fluorophenyl)-1H-pyrazolo[3,4-c]pyridine-4-carboxylic acid (6-ethanesulfonyl-pyridin-3-ylmethyl)-amide] | 7.51
